Data as given in patent US11396505B2, “Inhibitors of CaMKK2 and uses of same” (New York University, priority 2019, dated 2022).

Experiments:
CaMKK2 = CaMKK2 (Homo sapiens, UniProt Q96RR4); test: CaMKK1/2 biochemical assay, 32P radiometric kinase assay (CaMKK2); conditions: for inhibition at 0.2 µM: 0.2 μM compound, read-out: CaMKK2 % inhibition @ concentrations shown, 0.2 μM; for inhibition at 0.5 µM: 0.5 μM compound, read-out: CaMKK2 % inhibition @ concentrations shown, 0.5 μM; for inhibition at 10 µM: 10 μM compound, read-out: CaMKK2 % inhibition @ concentrations shown, 10 μM
Procedure: (§1) The following is an example of a CaMKK1/2-biochemical assay. Compounds were tested for CaMKK1/2 inhibition using a ^32P radiometric kinase assay as follows: A freshly prepared kinase reaction buffer (20 mM Hepes (pH 7.5), 10 mM MgCl2, 1 mM EGTA, 0.02% Brij35, 0.02 mg/ml BSA, 0.1 mM Na3VO4, 2 mM DTT, 1% DMSO) was treated with Myelin Basic Protein (final concentration=20 μM), CaCl2) (final concentration=1.5 mM), Calmodulin (final concentration=0.96 μM) and either CaMKK2 (final reaction concentration=120 nM) or CaMKK1 (final reaction concentration=150 nM) and gently mixed. Compounds were added as aliquots from 10 mM DMSO stock solutions such that the final compound concentration in the assay was either 10 μM, 0.5 μM or 0.2 μM. This mixture was allowed to incubate for 20 minutes at room temperature. ^32P-ATP (specific activity 10 μCi/μL) was added and the mixture was allowed to incubate for 2 hours at room temperature. The reaction mixture was spotted onto P81 ion exchange paper. The kinase activity was detected by the filter binding method.

CaMKK1 = CaMKK1 (Homo sapiens, UniProt Q8N5S9); test: CaMKK1/2 biochemical assay, 32P radiometric kinase assay (CaMKK1); conditions: 0.2 μM
Procedure: as §1

## CC(C)[C@H]1COC(=O)N1c1ccc2[nH]nc(-c3cc4ccccc4[nH]3)c2c1 [Example 39, (S)-3-(3-(1H-indol-2-yl)-1H-indazol-5-yl)-4-isopropyloxazolidin-2-one]
CaMKK2
  inhibition at 0.2 µM: 72%

## COc1ccc2cc(-c3n[nH]c4ccc(N5CCOC5=O)cc34)[nH]c2c1 [Example 19, 3-(3-(6-methoxy-1H-indol-2-yl)-1H-indazol-5-yl)oxazolidin-2-one]
CaMKK2
  inhibition at 0.2 µM: 87%

## O=C1CCCCN1c1ccc2[nH]nc(-c3cc4ccccc4[nH]3)c2c1 [Example 41, 1-(3-(1H-indol-2-yl)-1H-indazol-5-yl)piperidin-2-one]
CaMKK2
  Biochemical Data CaMKK2, inh @ 0.2 μM: 12% inh @ 0.2 μM
  inhibition at 0.2 µM: 12%
CaMKK1
  Biochemical Data CaMKK1, inh @ 0.2 μM: <5% inh @ 0.2 μM

## O=C1OCCN1c1ccc2[nH]nc(-c3cc4cccc(Cl)c4[nH]3)c2c1 [Example 14, 3-(3-(7-chloro-1H-indol-2-yl)-1H-indazol-5-yl)oxazolidin-2-one]
CaMKK2
  inhibition at 0.2 µM: 71%

## CN(C)CCNC(=O)c1cccc(/C=C/c2n[nH]c3ccc(N4CCOC4=O)cc23)c1 [Example 29, (E)-N-(2-(dimethylamino)ethyl)-3-(2-(5-(2-oxooxazolidin-3-yl)-1H-indazol-3-yl)vinyl)benzamide]
CaMKK2
  inhibition at 0.2 µM: 63%

## O=C1OCCN1c1ccc2[nH]nc(-c3cccc(Cl)c3)c2c1 [Example 23, 3-(3-(3-chlorophenyl)-1H-indazol-5-yl)oxazolidin-2-one]
CaMKK2
  Biochemical Data CaMKK2, inh @ 0.2 μM: 44% inh @ 0.2 μM
  inhibition at 0.2 µM: 44%
CaMKK1
  Biochemical Data CaMKK1, inh @ 0.2 μM: <5% inh @ 0.2 μM

## O=C1OCCN1c1ccc2[nH]nc(-c3cc4ccc(Cl)cc4[nH]3)c2c1 [Example 15, 3-(3-(6-chloro-1H-indol-2-yl)-1H-indazol-5-yl)oxazolidin-2-one]
CaMKK2
  inhibition at 0.2 µM: 85%

## COc1ccc2[nH]c(-c3n[nH]c4ccc(N5CCOC5=O)cc34)cc2c1 [Example 20, 3-(3-(5-methoxy-1H-indol-2-yl)-1H-indazol-5-yl)oxazolidin-2-one]
CaMKK2
  inhibition at 0.2 µM: 84%

## O=C1OC[C@H](c2ccccc2)N1c1ccc2[nH]nc(-c3cc4ccccc4[nH]3)c2c1 [Example 37, (S)-3-(3-(1H-indol-2-yl)-1H-indazol-5-yl)-4-phenyloxazolidin-2-one]
CaMKK2
  inhibition at 0.2 µM: 74%

## O=C1OCCN1c1ccc2[nH]nc(/C=C/c3ccccc3)c2c1 [Example 9, (E)-3-(3-styryl-1H-indazol-5-yl)oxazolidin-2-one]
CaMKK2
  inhibition at 0.5 µM: 89%

## O=C1OC[C@H](CO)N1c1ccc2[nH]nc(-c3cc4ccccc4[nH]3)c2c1 [Example 35, (S)-3-(3-(1H-indol-2-yl)-1H-indazol-5-yl)-4-(hydroxymethyl)oxazolidin-2-one]
CaMKK2
  inhibition at 0.2 µM: 68%

## O=C1OCCN1c1ccc2[nH]nc(-n3ccnc3)c2c1 [Example 5, 3-(3-(1H-imidazol-1-yl)-1H-indazol-5-yl)oxazolidin-2-one]
CaMKK2
  inhibition at 10 µM: 29%

## CN(C)CCNC(=O)c1ccc(/C=C/c2n[nH]c3ccc(N4CCOC4=O)cc23)cc1 [Example 30, (E)-N-(2-(dimethylamino)ethyl)-4-(2-(5-(2-oxooxazolidin-3-yl)-1H-indazol-3-yl)vinyl)benzamide]
CaMKK2
  inhibition at 0.2 µM: 75%

## O=C1OCCN1c1ccc2[nH]nc(-c3ccc(Cl)cc3)c2c1 [Example 24, 3-(3-(4-chlorophenyl)-1H-indazol-5-yl)oxazolidin-2-one]
CaMKK2
  Biochemical Data CaMKK2, inh @ 0.2 μM: 41% inh @ 0.2 μM
  inhibition at 0.2 µM: 41%
CaMKK1
  Biochemical Data CaMKK1, inh @ 0.2 μM: <5% inh @ 0.2 μM

## O=C1OCCN1c1ccc2[nH]nc(-c3ccc4ccccc4c3)c2c1 [Example 25, 3-(3-(naphthalen-2-yl)-1H-indazol-5-yl)oxazolidin-2-one]
CaMKK2
  inhibition at 0.2 µM: 67%

## COc1cccc2[nH]c(-c3n[nH]c4ccc(N5CCOC5=O)cc34)cc12 [Example 21, 3-(3-(4-methoxy-1H-indol-2-yl)-1H-indazol-5-yl)oxazolidin-2-one]
CaMKK2
  inhibition at 0.2 µM: 84%

## COC(=O)[C@@H]1CCC(=O)N1c1ccc2[nH]nc(-c3cc4ccccc4[nH]3)c2c1 [Example 43, methyl (S)-1-(3-(1H-indol-2-yl)-1H-indazol-5-yl)-5-oxopyrrolidine-2-carboxylate]
CaMKK2
  inhibition at 0.2 µM: 38%

## O=C1OC[C@@H](CO)N1c1ccc2[nH]nc(-c3cc4ccccc4[nH]3)c2c1 [Example 36, (R)-3-(3-(1H-indol-2-yl)-1H-indazol-5-yl)-4-(hydroxymethyl)oxazolidin-2-one]
CaMKK2
  inhibition at 0.2 µM: 57%

## O=C(O)[C@@H]1CCC(=O)N1c1ccc2[nH]nc(-c3cc4ccccc4[nH]3)c2c1 [Example 44, (S)-1-(3-(1H-indol-2-yl)-1H-indazol-5-yl)-5-oxopyrrolidine-2-carboxylic acid]
CaMKK2
  inhibition at 0.2 µM: 78%

## C[C@H]1COC(=O)N1c1ccc2[nH]nc(-c3cc4ccccc4[nH]3)c2c1 [Example 33, (S)-3-(3-(1H-indol-2-yl)-1H-indazol-5-yl)-4-methyloxazolidin-2-one]
CaMKK2
  inhibition at 0.2 µM: 90%

## O=C1OCCN1c1ccc2[nH]nc(-c3ccc4cc[nH]c4c3)c2c1 [Example 28, 3-(3-(1H-indol-6-yl)-1H-indazol-5-yl)oxazolidin-2-one]
CaMKK2
  inhibition at 0.2 µM: 44%

## O=C1OCCN1c1ccc2[nH]nc(-c3ccc(-c4ccccc4)cc3)c2c1 [Example 27, 3-(3-([1,1′-biphenyl]-4-yl)-1H-indazol-5-yl)oxazolidin-2-one]
CaMKK2
  inhibition at 0.2 µM: 59%

## O=C1CCCN1c1ccc2[nH]nc(-c3cc4ccccc4[nH]3)c2c1 [Example 42, 1-(3-(1H-indol-2-yl)-1H-indazol-5-yl)pyrrolidin-2-one]
CaMKK2
  inhibition at 0.2 µM: 56%

## O=C1OCCN1c1ccc2[nH]nc(/C=C/c3ccncc3)c2c1 [Example 11, (E)-3-(3-(2-(pyridin-4-yl)vinyl)-1H-indazol-5-yl)oxazolidin-2-one]
CaMKK2
  inhibition at 0.5 µM: 80%

## C[C@@H]1COC(=O)N1c1ccc2[nH]nc(-c3cc4ccccc4[nH]3)c2c1 [Example 34, (R)-3-(3-(1H-indol-2-yl)-1H-indazol-5-yl)-4-methyloxazolidin-2-one]
CaMKK2
  inhibition at 0.2 µM: 73%

## O=S1(=O)CCCN1c1ccc2[nH]nc(-c3cc4ccccc4[nH]3)c2c1 [Example 32, 2-(3-(1H-indol-2-yl)-1H-indazol-5-yl)isothiazolidine 1,1-dioxide]
CaMKK2
  inhibition at 0.2 µM: 84%

## O=C1OC[C@@H](c2ccccc2)N1c1ccc2[nH]nc(-c3cc4ccccc4[nH]3)c2c1 [Example 38, (R)-3-(3-(1H-indol-2-yl)-1H-indazol-5-yl)-4-phenyloxazolidin-2-one]
CaMKK2
  inhibition at 0.2 µM: 50%

## COc1cccc2cc(-c3n[nH]c4ccc(N5CCOC5=O)cc34)[nH]c12 [Example 18, 3-(3-(7-methoxy-1H-indol-2-yl)-1H-indazol-5-yl)oxazolidin-2-one]
CaMKK2
  inhibition at 0.2 µM: 61%

## O=C1OCCN1c1ccc2[nH]nc(/C=C/c3cccnc3)c2c1 [Example 10, (E)-3-(3-(2-(pyridin-3-yl)vinyl)-1H-indazol-5-yl)oxazolidin-2-one]
CaMKK2
  inhibition at 0.5 µM: 72%

## O=C1OCCN1c1ccc2[nH]nc(-c3coc4ccccc34)c2c1 [Example 1, 3-(3-(Benzofuran-3-yl)-1H-indazol-5-yl)oxazolidin-2-one]
CaMKK2
  inhibition at 10 µM: 72%

## O=C1OCCN1c1ccc2[nH]nc(-c3cc4c(Cl)cccc4[nH]3)c2c1 [Example 17, 3-(3-(4-chloro-1H-indol-2-yl)-1H-indazol-5-yl)oxazolidin-2-one]
CaMKK2
  inhibition at 0.2 µM: 71%
